Bounds are passed on as bounds.

Data set [1] is described as follows: Visual Analog Scale reports of hunger in obese patients. It counts as in vivo, human. To be noted: successive biweekly dose administration, 0.9 mg/m^2 cohort. The procedure: FIG. 2 depicts VAS reports of hunger decline by approximately 50% with body weight change (percent) with biweekly dosing of f 0.1 mg/m^2, 0.3 mg/m^2, and 0.9 mg/m^2 (approximately 1.8 to 2.1 mg) of 6-O-(4-dimethylaminoethoxy)cinnamoyl fumagillol in human patients. Values are means (n=6 per dose level) of changes in fasted Visual Analog Scale scores for each visit day vs. Day 1 for population; p values derived from 2-way ANOVA with Bonferroni post-test comparisons (*, p<0.05; **, p<0.01 vs. placebo). Obese patients were treated in three cohorts with intravenous administration of a formulation of the compound 6-O-(4-dimethylaminoethoxy)cinnamoyl fumagillol oxalate. The compound was intravenously administered to each patient of a cohort (except for a placebo cohort) twice weekly for at least 26 days. Each of patients in the three non-placebo cohorts received either 0.1 mg/m^2 (cohort 1); 0.3 mg/m^2 (cohort 2); or 0.9 mg/m^2 (cohort 3) doses of the compound at the time of administration. The trial was conducted under the appropriate government and medical supervision. […] FIG. 1 depicts the body weight change (loss) as a percent before each administration of the biweekly dose for the 0.9 mg/m^2 cohort. FIG. 2 depicts the Visual Analog Scale reports of hunger decline about 50% following successive biweekly dose administration for the 0.9 mg/m^2 cohort.

Data set [2] is described as follows: Body weight in obese patients, twice weekly intravenous administration (clinical trial). It counts as in vivo, human. To be noted: for Dose at which weight loss efficacy is obtained: administered twice weekly. Here is the method:
Obese patients were treated in three cohorts with intravenous administration of a formulation of the compound 6-O-(4-dimethylaminoethoxy)cinnamoyl fumagillol oxalate. The compound was intravenously administered to each patient of a cohort (except for a placebo cohort) twice weekly for at least 26 days. Each of patients in the three non-placebo cohorts received either 0.1 mg/m^2 (cohort 1); 0.3 mg/m^2 (cohort 2); or 0.9 mg/m^2 (cohort 3) doses of the compound at the time of administration. The trial was conducted under the appropriate government and medical supervision. […] Table 1 summarizes body weight determination of the 9 patients in the 0.9 mg/m^2 cohort on the day of the first dose and prior to a second dose administered four days later. […] FIG. 1 depicts the body weight change (loss) as a percent before each administration of the biweekly dose for the 0.9 mg/m^2 cohort. FIG. 2 depicts the Visual Analog Scale reports of hunger decline about 50% following successive biweekly dose administration for the 0.9 mg/m^2 cohort. […] All of the subjects of the trial described in Example 1 received doses ranging from 1.8 to 2.2 mg with each administration (given twice weekly). However, weight change of was not strictly associated with dose delivered. Instead, response was strongly associated with dose administered per unit excess body weight, as compared to weight change associated with dose delivered per unit body weight.

In data set [3] the test system is adiponectin. Description: Adiponectin levels in the serum of patients undergoing the trial. The class given is in vivo, human. To be noted: with treatment. Here is the method: Obese patients were treated in three cohorts with intravenous administration of a formulation of the compound 6-O-(4-dimethylaminoethoxy)cinnamoyl fumagillol oxalate. The compound was intravenously administered to each patient of a cohort (except for a placebo cohort) twice weekly for at least 26 days. Each of patients in the three non-placebo cohorts received either 0.1 mg/m^2 (cohort 1); 0.3 mg/m^2 (cohort 2); or 0.9 mg/m^2 (cohort 3) doses of the compound at the time of administration. The trial was conducted under the appropriate government and medical supervision. Levels of adiponectin in the serum of patients undergoing the trial were also measured.

The conditions of data set [4]: human, in vivo. Here is the method:
Obese patients were treated in three cohorts with intravenous administration of a formulation of the compound 6-O-(4-dimethylaminoethoxy)cinnamoyl fumagillol oxalate. The compound was intravenously administered to each patient of a cohort (except for a placebo cohort) twice weekly for at least 26 days. Each of patients in the three non-placebo cohorts received either 0.1 mg/m^2 (cohort 1); 0.3 mg/m^2 (cohort 2); or 0.9 mg/m^2 (cohort 3) doses of the compound at the time of administration. The trial was conducted under the appropriate government and medical supervision.
Table 1 summarizes body weight determination of the 9 patients in the 0.9 mg/m^2 cohort on the day of the first dose and prior to a second dose administered four days later.
There was a significant correlation between weight loss of patients and maintained exposure of 0.02 ng/mL of the drug above the level of quantitation of the assay 24 hours after dosing, as shown in FIG. 4 (circled data point is exposure of one poor responder below the level of quantitation of assay). The PK profile at day 26 is representative of steady state (see FIG. 5).

Setting [5] is: listed as 6-O-(4-dimethylaminoethoxy)cinnamoyl fumagillol.

Regarding `CO[C@@H]1[C@H](OC(=O)/C=C/c2ccc(OCCN(C)C)cc2)CC[C@]2(CO2)[C@H]1[C@@]1(C)O[C@@H]1CC=C(C)C.O=C(O)C(=O)O` [6-O-(4-dimethylaminoethoxy)cinnamoyl fumagillol oxalate], the figures for the “Visual Analog Scale reports of hunger decline” value in data set [1] and in data set [1] (setting [5]) were “about 50%” and “approximately 50%”, respectively. For the same compound, in data set [2] (0.1 and 0.3 mg/m^2, twice weekly), the “Weight loss efficacy at low doses” value is recorded as “Lack of efficacy”. In data set [2] (7 of the 9 subjects treated at 0.9 mg/m^2, twice weekly), the “body weight loss over 26 days of exposure” value was 3-4%. Moreover, the “Dose at which weight loss efficacy is obtained” value in data set [2] was at least 0.02 mg/kg; in data set [2] (setting [5]), about 0.02 mg/kg. In addition, the “Dose per kg of excess body weight needed to see effects” value in data set [2] (obese patients, twice weekly) was > 40 μg of drug per kg of excess body weight. The “Increase in adiponectin concentrations” value in data set [3] is recorded as “over 60%”. Further, the “Drug exposure at 24 hours post dose correlated with weight loss” value in data set [4] is given as “above 0.02 ng/mL”. Moreover, the “terminal half life of the drug” value in data set [4] (iv) was 5.4 h.

Values taken from patent publication US20140011870A1, “Methods of Treating Obesity Using an Effective Dose of a METAP-2 Inhibitor” (Zafgen, Inc., priority 2010, published 2014).
